One assay concerns prostatic urethrae. The assay can be described thus: Urethra Contraction Test (inhibition of phenylephrine contraction of prostatic urethra). Set-up: species or system rabbit (male New Zealand). The note with it: inhibition of contraction of rabbit prostatic urethra, agonist phenylephrine, compound 30 min before. On the procedure: The urethrae are removed from male New Zealand rabibits, and cleaned of the surrounding connective tissues. Bands of prostatic urethrae (3 mm wide, 10-15 mm long) are suspended (1 g tension) in organ baths containing 10 ml of physiological solution (pH 7.4) at 37° C. under an atmosphere of 95% O2 /5% CO2; NaCl (118 mM); KCl (4.7 mM); CaCl2 (2.5 mM); KH2 PO4 (1.2 mM); MgSO4 (1.2 mM); NaHCO3 (25 mM); glucose (11 mM). The contractile responses are measured using force displacement transducers coupled to a Gould 8000S polygraph. A one hour period of equilibration or equalization is provided before the experiment. After equalization, the preparations are sensitized by a submaximal concentration of phenylephrine. Forty five minutes after the sensitization, a concentration-effect curve for the phenylephrine is established. In order to determine the effect of the test compounds, different preparations originating from the same animal are used in parallel. One preparation serves as a control whilst the others receive a concentration of a test compound introduced into the bath 30 minutes before the phenylephrine (Auguet, M. et al. European J. Pharmacol. 217:153 (1995)).
The dissociation constants (Kb) of the test compounds are determined using the following equation: Kb =[B]/(dose ratio--1); in which [B] is the concentration of test compound and (dose ratio) is the EC50 of phenylephrine in the presence of the test compound divided by the EC50 of the control preparation. These resultats are then expressed as the negative logarithm of Kb. The values of the EC50 are calculated from the maximum contractile response to the phenylephrine by computer analysis using a linear regression over the average tension values. The maximum contractile response of each preparation which was subjected to the test compound is determined by comparing the response provoked by the application of the sensitizing concentration of phenylephrine with the response provoked in the control preparation (which has not received the test compounds).

The target of another assay is α1-adrenergic receptor. The assay can be described thus: Test of the bond to the α1-adrenergic receptor (inhibition of [3H]prazosin bond to rat cerebral cortex). Type of assay: binding, rat (male Sprague Dawley). The conditions noted are these: [3H]prazosin 0.2 nM, rat cerebral cortex membranes, 30 min, 25° C., pH 7.7. On the procedure:
The cerebral cortices of male Sprague Dawley rats are homogenized at 4° C. in Tris-HCl 50 mM pH=7.7 and centrifuged at 50,000 g for 30 minutes at 4° C. The pellets are again suspended in the same buffer and centrifuged again at 50,000 g for 30 minutes at 4° C.
The filters are rinsed three times with the same buffer at 0-4° C. and their radioactivity is tested by liquid scintillation spectrometry.
The specific bonds are obtained by subtracting the non-specific bonds (determined in the presence of 10 μM of phentolamine (Sigma Chemical Co. St. Louis Mo.)) from the total bonds. The data relative to the bonds is analyzed by computer assisted iterative non-linear regression analysis, using the Ligand program (Munson, P. J., Rodbard, D. Anal. Biochem. 107:220 (1980)).

On to `Cc1ccc(C)c(N2CCN(CCCNC(=O)C(C)(O)c3ccccc3)CC2)c1` (racemic) [Compound 22, (±)-N-[3-{4-(2,5-dimethylphenyl)-1-piperazinyl}-propyl]-α-hydroxy-α-methyl-benzeneacetamide], for which the “-log Kb” value in the assay with prostatic urethrae came to 8.3. For the same compound, on α1-adrenergic receptor, affinity was put at a Ki of 0.025 µM.
Taken in the same sequence, the figures for `CCC(O)(C(=O)NCCCN1CCN(c2cc(C)ccc2C)CC1)c1ccccc1` (racemic) [Compound 27, (±)-N-[3-{4-(2,5-dimethylphenyl)-1-piperazinyl}-propyl]-2-hydroxy-2-phenyl-butyramide] were 7.6 and 0.031 µM.
For the compound `Cc1ccc(C)c(N2CCN(CCCNC(=O)C(C)c3ccccc3)CC2)c1` (racemic) [Compound 38, (±)-N-[3-{4-(2,5-dimethylphenyl)-1-piperazinyl}-propyl]-α-methyl-benzeneacetamide], the “-log Kb” value in the assay on prostatic urethrae is 7.5. Also, affinity on α1-adrenergic receptor was put at a Ki of 0.03 µM.
For `Cc1ccc(C)c(N2CCN(CCCNC(=O)C(CO)c3ccccc3)CC2)c1` (racemic) [Compound 39, (±)-N-[3-{4-(2,5-dimethylphenyl)-1-piperazinyl}-propyl]-α-hydroxymethyl-benzeneacetamide], the “-log Kb” value with prostatic urethrae is recorded as 7.3. Affinity on α1-adrenergic receptor was put at a Ki of 0.027 µM.
With `Cc1ccc(C)c(N2CCN(CCCNC(=O)C(C)(O)c3cccc4ccccc34)CC2)c1` (racemic) [Compound 42, (±)-N-[3-{4-(2,5dimethylphenyl)-1-piperazinyl}-propyl]-α-hydroxy-α-methyl-1-naphthaleneacetamide], the “-log Kb” value in the assay on prostatic urethrae is recorded as 7.68. Further, the Ki at α1-adrenergic receptor was determined as 0.022 µM.
As for `Cc1ccc(C)c(N2CCN(CCCNC(=O)C(C(=O)NCc3ccccc3)c3ccccc3)CC2)c1` (racemic) [Compound 47, (±)-N-[3-{4-(2,5-dimethylphenyl)-1-piperazinyl}-propyl]-α-benzylaminocarbonyl-benzeneacetamide], in the assay on prostatic urethrae, the “-log Kb” value came to 7.07. At α1-adrenergic receptor, the affinity corresponds to a Ki of 0.014 µM.
`Cc1ccc(S(=O)(=O)NC(C(=O)NCCCN2CCN(c3cc(C)ccc3C)CC2)c2ccccc2)cc1` (racemic) [Compound 48, (±)-N-[3-{4-(2,5-dimethylphenyl)-1piperazinyl}-propyl]-α-(4-methylphenyl)-sulphonylamino-benzeneacetamide]: the “-log Kb” value in the assay with prostatic urethrae turned out to be 7.02. Besides, on α1-adrenergic receptor, affinity was put at a Ki of 0.029 µM.
Taken in the same sequence, the figures for `Cc1ccc(C)c(N2CCN(CCCNC(=O)C(C)(C(=O)NCc3ccccc3)c3ccccc3)CC2)c1` (racemic) [Compound 50, (±)-N-[3-{4-(2,5-dimethylphenyl)-1-piperazinyl}-propyl]-α-benzylaminocarbonyl-α-methyl-benzeneacetamide] were 6.92 and 0.05 µM.
For the compound `Cc1ccccc1N1CCN(CCCNC(=O)C(O)(c2ccccc2)c2ccccc2)CC1` [Compound 2, α-hydroxy-N-[3-{4-(2-methylphenyl)-1-piperazinyl}-propyl]-α-phenyl-benzeneacetamide], the “-log Kb” value in the assay with prostatic urethrae was 8. This compound came in with a Ki at α1-adrenergic receptor of 0.03 µM.
For `Cc1ccc(C)c(N2CCN(CCCNC(=O)C(O)(c3ccccc3)c3ccccc3)CC2)c1` [Compound 7, N-[3-{4-(2. 5-dimethylphenyl)-1-piperazinyl}-propyl]-α-hydroxy-α-phenyl-benzeneacetamide], the “-log Kb” value in the assay with prostatic urethrae turned out to be 8.1. Moreover, the Ki on α1-adrenergic receptor was found to be 0.03 µM.
`CCOc1ccccc1N1CCN(CCCNC(=O)C(O)(c2ccccc2)c2ccccc2)CC1` [Compound 8, N-[3-{4-(2-ethoxyphenyl)-1-piperazinyl}-propyl]-α-hydroxy-α-phenyl-benzeneacetamide]: the “-log Kb” value with prostatic urethrae came to 8.2. At α1-adrenergic receptor, this compound came in with a Ki of 0.016 µM.
Turning to `O=C(NCCCN1CCN(c2ccccc2Cl)CC1)C(O)(c1ccccc1)c1ccccc1` [Compound 9, N-[3-{4-(2-chlorophenyl)-1-piperazinyl}-propyl]-α-hydroxy-α-phenyl-benzeneacetamide], the “-log Kb” value in the assay with prostatic urethrae worked out at 8.1. At α1-adrenergic receptor, this compound returned a Ki of 0.028 µM.

The Ki is the equilibrium dissociation constant of an inhibitor or competing ligand from its target.

For the origin of these results see patent US6300499A, “α1-adrenergic receptor antagonists” (Societe de Conseils de Recherches et d'Applications …, priority 1998, dated 2001).
